Results as given in patent US20230027026A1, “FUSED PYRIMIDINE COMPOUNDS, COMPOSITIONS AND MEDICINAL APPLICATIONS THEREOF” (JUBILANT BIOSYS LIMITED, priority 2019, published 2023).
Structures can show the parent of a compound that is named as a salt.

Experiments:
[1] = biological target: EGFR (A767_dupASV) expressing Ba/F3 stable cell line (Homo sapiens, UniProt P00533, DUP767-769, cells depend on it); assay: Cellular proliferation (Alamar Blue) assay, EGFR A767_dupASV Ba/F3; assay type: cell-based; conditions: EGFR A767_dupASV Ba/F3, 72 hr, read-out: A767 IC50
Method: (§1) Example 3: Cellular Proliferation (Alamar Blue) Assays
(§2) • 1. EGFR(D770_N771insSVD) expressing Ba/F3 stable cell line • 2. EGFR (A767_dupASV) expressing Ba/F3 stable cell line • 3. A431 cells • 4. BTER2 (A775_G776insYVMA) expressing Ba/F3 stable cell line • 5. BTER2 (WT) expressing Ba/F3 stable cell line • 6. BT-474 cells
(§3) • 1. Seed cells at 5000 for A431 and 15,000 cells for Ba/F3 in 100 μL/well in complete media (for A431: DMEM with 10% FBS and for Ba/F3 cells: RPMI with 10% FBS) in 96-well tissue culture plate. Leave outer wells without cells for background measurements. Incubate at 37 degree Celsius in 5% CO2 humidified incubator for 16-18 hours. • 2. Add 0.025 ml of 5× concentration compound dilution or DMSO control. Final compound concentration range is 10-0.0005 μM prepared in 3-fold serial dilutions. Incubate for 72 hr at 37 degree Celsius in […] humidified incubator. • 3. Add 0.0125 mL Alamar Blue™ reagent to each well with multi-channel pipette and tap gently on each side of the plate to mix. Incubate for 3 hours at 37 degree Celsius in […] humidified incubator. • 4. Read plates on fluorescence reader (Tecan Spark Control, Device: Spark, Serial #: 1801006040) at 540 nm excitation, 590 nm emission wavelength. • 5. Data analysis was performed using XLfit 5.5.0.5.

EGFR (T790M/L858R) = biological target: T1, EGFR (T790M/L858R) (Homo sapiens, UniProt P00533, L858R/T790M); assay: EGFR L858R/T790M enzyme inhibition assay (HTRF); assay type: biochemical; conditions: 5 μM ATP, 60 min, read-out: EGFR_L858R T790M_IC50_nM
T1 construct: GST; purchased Proqinase
Method: Example 2: EGFR L858R & Del19/T790M Assay Protocol (to Find the IC50 for the Compounds Using HTRF Method)
Reagents for Enzyme Assay:
• 1. Enzyme Assay Buffer: 60 mM HEPES (pH 7.4), 50 mM NaCl, 20 mM MgCl2, 5 mM MnCl2, filtered using 0.2 μm pore size, stored at 4° C. • Supplements (added fresh to the enzyme buffer): 1M DTT stock was made, 5% BSA stock and 0.1M Na3OV4 stored at 4° C. Enzyme assay buffer 50 mL, 1 M DTT 100 μL, 5% BSA 500 μL, 0.1 M Na3OV4 50 μL. • 2. GST-hEGFR (L858R), active: EGFR (T790M/L858R), active (Proqinase), 3.6 μM stock; 2.5 nM in final assay. • 3. Gastrin Precusor-Biotinylated: Gastrin precursor (Tyr87) biotinylated peptide, EEAY*GWM, Cell Signaling Tech 1310, Lot-7, Want final 0.5 μM in assay. • 4. ATP: 10 mM stock in 100 μL Enzyme assay buffer pH 7.4 prepared freshly, want 5 μM in final assay. • 5. Test compounds: Powders were dissolved in 100% DMSO and made up to a final stock concentration of 10 mM (volume in μL to add for 10 mM=mg powder X 10^5/MW). Final compound concentration in the assay plate started at 10 μM.
• 1. HTRF buffer: 50 mM Tris —HCl, pH-7.5, 100 mM NaCl, 0.1% BSA, 0.05% Tween20, 0.5 mM EDTA, filtered using 0.2 μm pore size, stored at 4° C. • Phycolink® Streptavidin-Allophycocyanin (SA-APC) Prozyme, Cat. #PJ25S, Lot #896 085, 2.06 mg/mL, APC concentration is 11.6 μM, streptavidin concentration is 15.5 μM. Want 12 nM final in assay (based on streptavidin concentration). • 2. (Europium) Eu-W1024 Anti-phosphotyrosine (PT-66) Antibody: Perkin Elmer (Product Number: AD0068), monoclonal IgG1 that recognizes phosphotyrosine peptide 100 μg/ml stock. Want 0.1 nM final in assay.
• 1. The compound dilution was made by TECAN as per the above scheme. • 2. 16 μL of diluted compound was added to the assay plate by using TECAN. • 3. 10 μL of enzyme mix was added to each well except mins. • 4. 20 μL of substrate and ATP mix were added into each well of the assay plate, manually. • 5. The plate was incubated on a laboratory shaker at room temperature for 60 min. • 6. Meanwhile, the HTRF mix was prepared and 75 μL was added to the HTRF plate. • 7. When the incubation was over, 10 μL of the reaction mixture was transferred to the HTRF assay plate and incubated on a laboratory shaker for 30 min at room temperature. • 8. The reading was taken in Pherastar (ext 337 nm, Em 665 & 620 nm). • 9. The results were analyzed using Graphpad prism after calculation of the z factor, signal window and % inhibition to get the IC50.

A431 cells = assay: Cellular proliferation (Alamar Blue) assay, A431; assay type: cell-based; conditions: Homo sapiens, A-431; A431 cells, 72 hr, Alamar Blue; read-out: A431 IC50
Method: as §1, §2, §3

[2] = biological target: EGFR(D770_N771insSVD) expressing Ba/F3 stable cell line (Homo sapiens, UniProt P00533, DUP768-770, cells depend on it); assay: Cellular proliferation (Alamar Blue) assay, EGFR D770_N771insSVD Ba/F3; assay type: cell-based; conditions: EGFR D770_N771insSVD Ba/F3, 72 hr, read-out: D770 IC50
Method: as §1, §2, §3

[3] = biological target: HER2 (A775_G776insYVMA) expressing Ba/F3 stable cell line (Homo sapiens, UniProt P04626, DUP772-775, cells depend on it); assay: Cellular proliferation (Alamar Blue) assay, HER2 YVMA Ba/F3; assay type: cell-based; conditions: HER2 A775_G776insYVMA Ba/F3, 72 hr, read-out: YVMA IC50
Method: as §1, §2, §3

Chain of HER2 (A775_G776insYVMA) expressing Ba/F3 stable cell line (P04626 with tags, fused parts or gaps DUP772-775): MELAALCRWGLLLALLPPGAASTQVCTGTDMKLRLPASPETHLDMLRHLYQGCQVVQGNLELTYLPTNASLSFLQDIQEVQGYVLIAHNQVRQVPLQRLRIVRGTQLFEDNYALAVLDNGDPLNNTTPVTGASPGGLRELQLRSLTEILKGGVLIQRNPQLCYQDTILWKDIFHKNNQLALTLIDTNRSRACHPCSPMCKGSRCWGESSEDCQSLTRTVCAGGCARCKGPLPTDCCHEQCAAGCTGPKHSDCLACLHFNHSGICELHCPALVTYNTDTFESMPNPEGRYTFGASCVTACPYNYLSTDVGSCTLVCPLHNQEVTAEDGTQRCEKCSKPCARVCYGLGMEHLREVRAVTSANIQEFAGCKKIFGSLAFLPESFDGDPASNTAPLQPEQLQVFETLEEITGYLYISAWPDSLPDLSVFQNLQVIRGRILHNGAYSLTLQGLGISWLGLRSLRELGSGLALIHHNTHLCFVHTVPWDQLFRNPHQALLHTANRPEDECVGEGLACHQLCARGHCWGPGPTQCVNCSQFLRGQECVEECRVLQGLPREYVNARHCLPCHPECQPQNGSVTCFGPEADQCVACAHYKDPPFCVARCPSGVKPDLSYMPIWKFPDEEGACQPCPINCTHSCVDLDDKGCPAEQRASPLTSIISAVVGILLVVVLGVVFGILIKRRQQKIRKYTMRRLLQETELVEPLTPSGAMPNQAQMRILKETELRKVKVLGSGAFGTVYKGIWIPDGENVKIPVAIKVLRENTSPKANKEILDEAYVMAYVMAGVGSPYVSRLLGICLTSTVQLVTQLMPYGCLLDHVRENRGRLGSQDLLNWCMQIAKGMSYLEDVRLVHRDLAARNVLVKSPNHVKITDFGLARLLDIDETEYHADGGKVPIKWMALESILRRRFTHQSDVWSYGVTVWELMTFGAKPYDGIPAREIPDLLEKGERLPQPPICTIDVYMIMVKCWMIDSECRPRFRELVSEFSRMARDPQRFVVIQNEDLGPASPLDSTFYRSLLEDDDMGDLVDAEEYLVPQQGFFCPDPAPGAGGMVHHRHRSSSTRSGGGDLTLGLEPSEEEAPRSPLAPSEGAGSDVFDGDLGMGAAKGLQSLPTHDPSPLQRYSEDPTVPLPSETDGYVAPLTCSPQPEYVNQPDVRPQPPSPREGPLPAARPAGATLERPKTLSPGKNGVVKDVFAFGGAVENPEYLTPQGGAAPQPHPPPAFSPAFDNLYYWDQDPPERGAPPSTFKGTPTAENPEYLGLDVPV
Chain of EGFR(D770_N771insSVD) expressing Ba/F3 stable cell line (P00533 with tags, fused parts or gaps DUP768-770): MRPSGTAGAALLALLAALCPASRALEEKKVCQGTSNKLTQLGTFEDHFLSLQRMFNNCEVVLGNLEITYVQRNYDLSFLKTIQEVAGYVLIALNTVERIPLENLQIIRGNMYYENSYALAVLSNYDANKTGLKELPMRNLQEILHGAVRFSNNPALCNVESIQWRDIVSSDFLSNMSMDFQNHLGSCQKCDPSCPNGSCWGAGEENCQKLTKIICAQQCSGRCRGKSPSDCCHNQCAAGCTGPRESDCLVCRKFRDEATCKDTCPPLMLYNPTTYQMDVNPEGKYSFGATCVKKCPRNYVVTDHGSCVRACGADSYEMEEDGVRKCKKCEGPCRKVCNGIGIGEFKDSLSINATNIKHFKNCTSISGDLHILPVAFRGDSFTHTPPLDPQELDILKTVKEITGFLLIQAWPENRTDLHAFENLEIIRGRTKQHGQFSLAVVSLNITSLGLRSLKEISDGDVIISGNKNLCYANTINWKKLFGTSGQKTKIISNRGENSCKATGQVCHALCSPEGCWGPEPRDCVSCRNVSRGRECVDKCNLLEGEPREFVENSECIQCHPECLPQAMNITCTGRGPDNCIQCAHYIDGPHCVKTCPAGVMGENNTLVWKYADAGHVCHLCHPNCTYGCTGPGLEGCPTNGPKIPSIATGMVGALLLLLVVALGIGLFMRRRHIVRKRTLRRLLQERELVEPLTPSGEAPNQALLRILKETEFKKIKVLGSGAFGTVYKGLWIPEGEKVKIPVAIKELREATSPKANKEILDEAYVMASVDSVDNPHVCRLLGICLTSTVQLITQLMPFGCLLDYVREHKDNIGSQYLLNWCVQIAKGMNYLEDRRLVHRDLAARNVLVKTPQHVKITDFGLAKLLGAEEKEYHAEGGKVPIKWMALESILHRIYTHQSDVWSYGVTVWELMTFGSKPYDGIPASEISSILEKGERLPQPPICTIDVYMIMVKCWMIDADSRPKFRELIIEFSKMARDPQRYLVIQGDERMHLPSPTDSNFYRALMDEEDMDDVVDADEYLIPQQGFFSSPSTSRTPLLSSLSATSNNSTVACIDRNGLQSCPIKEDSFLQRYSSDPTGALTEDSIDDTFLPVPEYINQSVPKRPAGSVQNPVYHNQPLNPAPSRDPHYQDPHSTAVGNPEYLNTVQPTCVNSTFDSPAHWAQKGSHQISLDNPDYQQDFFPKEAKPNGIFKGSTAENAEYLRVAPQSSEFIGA
T1 sequence (P00533 25-1210 T790M/L858R): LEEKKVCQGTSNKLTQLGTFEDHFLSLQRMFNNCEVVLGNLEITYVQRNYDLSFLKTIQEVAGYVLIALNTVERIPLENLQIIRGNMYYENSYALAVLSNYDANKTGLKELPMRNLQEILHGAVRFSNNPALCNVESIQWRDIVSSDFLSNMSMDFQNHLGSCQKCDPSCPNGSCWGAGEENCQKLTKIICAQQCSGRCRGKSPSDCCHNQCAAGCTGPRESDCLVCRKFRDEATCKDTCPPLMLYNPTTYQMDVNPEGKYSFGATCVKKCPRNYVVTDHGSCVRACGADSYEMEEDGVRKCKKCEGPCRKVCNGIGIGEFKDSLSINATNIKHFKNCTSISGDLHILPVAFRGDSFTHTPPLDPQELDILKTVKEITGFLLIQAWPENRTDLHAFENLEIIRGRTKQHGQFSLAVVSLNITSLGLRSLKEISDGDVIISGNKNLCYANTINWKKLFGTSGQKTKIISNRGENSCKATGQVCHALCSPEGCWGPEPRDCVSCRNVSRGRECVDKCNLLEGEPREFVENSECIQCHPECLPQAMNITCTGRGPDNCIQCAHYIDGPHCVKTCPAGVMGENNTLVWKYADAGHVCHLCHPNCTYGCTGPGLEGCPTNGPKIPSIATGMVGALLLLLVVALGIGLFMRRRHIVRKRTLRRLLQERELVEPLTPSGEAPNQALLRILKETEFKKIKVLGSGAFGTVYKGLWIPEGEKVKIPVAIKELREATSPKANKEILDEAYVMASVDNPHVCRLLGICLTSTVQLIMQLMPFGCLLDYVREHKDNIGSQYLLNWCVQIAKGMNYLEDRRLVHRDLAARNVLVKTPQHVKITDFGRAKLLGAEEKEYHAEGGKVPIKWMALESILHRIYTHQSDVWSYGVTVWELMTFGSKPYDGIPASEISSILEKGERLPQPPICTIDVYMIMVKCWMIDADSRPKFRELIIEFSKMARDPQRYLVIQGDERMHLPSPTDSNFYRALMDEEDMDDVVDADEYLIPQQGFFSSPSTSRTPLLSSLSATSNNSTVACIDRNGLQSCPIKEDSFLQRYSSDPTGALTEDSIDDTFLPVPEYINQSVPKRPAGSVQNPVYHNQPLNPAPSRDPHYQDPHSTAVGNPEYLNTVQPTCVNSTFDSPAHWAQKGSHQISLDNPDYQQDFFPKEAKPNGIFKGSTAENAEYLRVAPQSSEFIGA
Chain of EGFR (A767_dupASV) expressing Ba/F3 stable cell line (P00533 with tags, fused parts or gaps DUP767-769): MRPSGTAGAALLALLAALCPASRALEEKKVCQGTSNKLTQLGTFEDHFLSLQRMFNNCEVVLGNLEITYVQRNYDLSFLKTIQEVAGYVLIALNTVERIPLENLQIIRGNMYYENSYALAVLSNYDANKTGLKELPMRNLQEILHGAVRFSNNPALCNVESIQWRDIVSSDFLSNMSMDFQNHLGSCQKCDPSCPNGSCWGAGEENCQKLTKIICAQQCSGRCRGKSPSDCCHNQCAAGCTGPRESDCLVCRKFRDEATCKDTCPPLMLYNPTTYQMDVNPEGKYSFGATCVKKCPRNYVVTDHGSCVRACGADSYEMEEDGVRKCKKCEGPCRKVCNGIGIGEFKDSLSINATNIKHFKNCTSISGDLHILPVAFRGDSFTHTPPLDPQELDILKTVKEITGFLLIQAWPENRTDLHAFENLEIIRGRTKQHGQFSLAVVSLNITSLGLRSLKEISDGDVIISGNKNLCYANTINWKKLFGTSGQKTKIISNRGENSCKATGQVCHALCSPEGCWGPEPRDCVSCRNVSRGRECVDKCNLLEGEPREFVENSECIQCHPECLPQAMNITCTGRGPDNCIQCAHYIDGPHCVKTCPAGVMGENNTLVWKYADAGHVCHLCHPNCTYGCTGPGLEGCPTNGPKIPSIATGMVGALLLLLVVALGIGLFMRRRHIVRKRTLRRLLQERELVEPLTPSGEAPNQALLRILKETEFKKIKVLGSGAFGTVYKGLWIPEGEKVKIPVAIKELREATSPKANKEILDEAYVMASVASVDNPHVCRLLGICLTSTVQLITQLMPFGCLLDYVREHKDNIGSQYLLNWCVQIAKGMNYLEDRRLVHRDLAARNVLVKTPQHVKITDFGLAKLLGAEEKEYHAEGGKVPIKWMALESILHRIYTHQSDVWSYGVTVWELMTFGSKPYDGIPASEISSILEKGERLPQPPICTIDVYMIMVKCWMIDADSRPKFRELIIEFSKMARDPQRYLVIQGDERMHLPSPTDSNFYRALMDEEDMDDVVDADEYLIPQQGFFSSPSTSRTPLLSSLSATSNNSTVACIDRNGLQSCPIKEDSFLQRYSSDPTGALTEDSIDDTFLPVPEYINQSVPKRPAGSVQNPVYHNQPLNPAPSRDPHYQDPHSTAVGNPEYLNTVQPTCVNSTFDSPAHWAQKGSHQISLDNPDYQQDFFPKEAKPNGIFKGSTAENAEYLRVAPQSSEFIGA

Structure (SMILES) | GI50 [1] | IC50 (EGFR (T790M/L858R)) | IC50 (A431 cells) | GI50 [2] | GI50 [3]
C=CC(=O)N1CC[C@@H](N2C(=O)N(Cc3ccccc3)Cc3cnc(Nc4cn(C)nc4Cl)nc32)C1 (single isomer, unassigned) [Compound 38] | ≥ 10 µM | 0.446 µM | 7.49 µM | ≥ 10 µM | –
CN(C)C/C=C/C(=O)NC1CCCC(N2C(=O)N(Cc3ccccc3)Cc3cnc(Nc4cn(C)nc4Cl)nc32)C1 (centres unmarked) [Compound 33, (E)-N-(3-(3-benzyl-7-((3-chloro-1-methyl-1H-pyrazol-4-yl)amino)-2-oxo-3,4-dihydropyrimido[4,5-d]pyrimidin-1(2H)-yl)cyclohexyl)-4-(dimethylamino)but-2-enamide] | 4.08 µM | 0.869 µM | ≥ 10 µM | 3.88 µM | –
CN(C)C/C=C/C(=O)N1CCC(N2C(=O)N(Cc3ccccc3)Cc3cnc(Nc4cn(C)nc4Cl)nc32)C1 (centres unmarked) [Compound 34, (E)-3-benzyl-7-((3-chloro-1-methyl-1H-pyrazol-4-yl)amino)-1-(1-(4-(dimethylamino)but-2-enoyl)pyrrolidin-3-yl)-3,4-dihydropyrimido[4,5-d]pyrimidin-2(1H)-one] | – | 6.57 µM | – | – | –
C=CC(=O)NC1CCCC(N2C(=O)N(c3ccc(F)cc3)Cc3cnc(Nc4cn(C)nc4Cl)nc32)C1 (centres unmarked) [Compound 36, N-(3-(7-((3-chloro-1-methyl-1H-pyrazol-4-yl)amino)-3-(4-fluorophenyl)-2-oxo-3,4-dihydropyrimido[4,5-d]pyrimidin-1(2H)-yl)cyclohexyl)acrylamide] | 3.92 µM | 0.00297 µM | ≥ 10 µM | ≥ 10 µM | –
CN(C)C/C=C/C(=O)N1CC[C@H](N2C(=O)N(c3ccccc3)Cc3cnc(Nc4cn(C)nc4Cl)nc32)C1 [Compound 42, (S,E)-7-((3-chloro-1-methyl-1H-pyrazol-4-yl)amino)-1-(1-(4-(dimethylamino)but-2-enoyl)pyrrolidin-3-yl)-3-phenyl-3,4-dihydropyrimido[4,5-d]pyrimidin-2(1H)-one] | ≥ 10 µM | ≥ 10 µM | ≥ 10 µM | ≥ 10 µM | –
CN(C)C/C=C/C(=O)Nc1cccc(N2C(=O)N(Cc3ccccc3)Cc3cnc(Nc4cn(C5CCN(C)CC5)nc4Cl)nc32)c1 [Compound 65, (E)-N-(3-(3-benzyl-7-((3-chloro-1-(1-methylpiperidin-4-yl)-1H-pyrazol-4-yl)amino)-2-oxo-3,4-dihydropyrimido[4,5-d]pyrimidin-1(2H)-yl)phenyl)-4-(dimethylamino)but-2-enamide trifluoroacetate salt] | 0.964 µM | – | ≥ 10 µM | 1.09 µM | 0.732 µM
CN(C)C/C=C/C(=O)Nc1cccc(N2C(=O)N(Cc3ccccc3)Cc3cnc(Nc4ccc(N5CCN(C)CC5)nc4)nc32)c1 [Compound 66, (E)-N-(3-(3-benzyl-7-((6-(4-methylpiperazin-1-yl)pyridin-3-yl)amino)-2-oxo-3,4-dihydropyrimido[4,5-d]pyrimidin-1(2H)-yl)phenyl)-4-(dimethylamino)but-2-enamide] | 3.28 µM | – | ≥ 10 µM | 3.19 µM | 1.76 µM
C=C(OC)C(=O)Nc1cccc(N2C(=O)N(c3ccccc3)Cc3cnc(Nc4cn(C)nc4Cl)nc32)c1 [Compound 127, N-(3-(7-((3-chloro-1-methyl-1H-pyrazol-4-yl)amino)-2-oxo-3-phenyl-3,4-dihydropyrimido[4,5-d]pyrimidin-1(2H)-yl)phenyl)-2-methoxyacrylamide] | ≥ 10 µM | – | 8.17 µM | ≥ 10 µM | –
C=CC(=O)Nc1ccccc1N1C(=O)N(c2ccccc2)Cc2cnc(Nc3cn(C)nc3Cl)nc21 [Compound 130, N-(2-(7-((3-chloro-1-methyl-1H-pyrazol-4-yl)amino)-2-oxo-3-phenyl-3,4-dihydropyrimido[4,5-d]pyrimidin-1(2H)-yl)phenyl)acrylamide] | ≥ 10 µM | – | ≥ 10 µM | 9.26 µM | –

Further compounds by falling GI50 [1], results first:

GI50 [1] | IC50 (EGFR (T790M/L858R)) | IC50 (A431 cells) | GI50 [2] | GI50 [3] | Structure (SMILES)
0.96 µM | – | ≥ 10 µM | 0.973 µM | – | C=CC(=O)Nc1cccc(N2C(=O)N(c3ccccc3)Cc3cnc(Nc4cn(C5CCNCC5)nc4Cl)nc32)c1 [Compound 132, N-[3-(7-{[3-chloro-1-(piperidin-4-yl)-1H-pyrazol-4-yl]amino}-2-oxo-3-phenyl-1H,2H,3H,4H-pyrimido[4,5-d][1,3]diazin-1-yl)phenyl]prop-2-enamide]
0.504 µM | 0.58 µM | ≥ 10 µM | 0.759 µM | – | C=CC(=O)N1CC[C@H](N2C(=O)N(c3ccccc3)Cc3cnc(Nc4cn(C)nc4Cl)nc32)C1 [Compound 41, (S)-1-(1-acryloylpyrrolidin-3-yl)-7-((3-chloro-1-methyl-1H-pyrazol-4-yl)amino)-3-phenyl-3,4-dihydropyrimido[4,5-d]pyrimidin-2(1H)-one]
0.356 µM | – | 6.02 µM | 0.798 µM | 0.632 µM | Cc1ccc(CN2Cc3cnc(Nc4cn(C)nc4Cl)nc3N(c3cccc(NC(=O)/C=C/CN(C)C)c3)C2=O)c(C)c1 [Compound 68, (E)-N-(3-(7-((3-chloro-1-methyl-1H-pyrazol-4-yl)amino)-3-(2,4-dimethylbenzyl)-2-oxo-3,4-dihydropyrimido[4,5-d]pyrimidin-1(2H)-yl)phenyl)-4-(dimethylamino)but-2-enamide]
0.333 µM | – | ≥ 10 µM | 0.349 µM | 0.682 µM | C=CC(=O)Nc1cccc(N2C(=O)N(Cc3ccc(C)cc3C)Cc3cnc(Nc4cn(C)nc4Cl)nc32)c1 [Compound 69, N-(3-(7-((3-chloro-1-methyl-1H-pyrazol-4-yl)amino)-3-(2,4-dimethylbenzyl)-2-oxo-3,4-dihydropyrimido[4,5-d]pyrimidin-1(2H)-yl)phenyl)acrylamide]
0.041 µM | – | ≥ 10 µM | 0.084 µM | 0.09 µM | C=CC(=O)Nc1cccc(N2C(=O)N(Cc3ccccc3)Cc3cnc(Nc4ccc(N5CCN(C)CC5)nc4)nc32)c1 [Compound 67, N-(3-(3-benzyl-7-((6-(4-methylpiperazin-1-yl)pyridin-3-yl)amino)-2-oxo-3,4-dihydropyrimido[4,5-d]pyrimidin-1(2H)-yl)phenyl)acrylamide]
